Results reported in the NIST ThermoML archive (doi:10.1016/j.fluid.2011.02.020).

Assay: mn = molality of the nth substance listed, in mol/kg
Settings: 298.15 K, 101 kPa, Liquid, Vibrating tube method

CCCCCCC(F)(F)C(F)(F)C(F)(F)C(F)(F)F [1,1,1,2,2,3,3,4,4-nonafluorodecane] + CCCCCCCC
Settings	molar volume [m3/mol]
m1 = 0.0465	0.0002496
m1 = 0.0608	0.0002501
m1 = 0.0703	0.0002498
m1 = 0.1003	0.0002498
m1 = 0.1403	0.0002498
m1 = 0.1663	0.0002493
m1 = 0.1689	0.0002492
m1 = 0.2127	0.0002497

CCCCCCCCC(F)(F)C(F)(F)C(F)(F)C(F)(F)F [1,1,1,2,2,3,3,4,4-nonafluorododecane] + CCCCCCCC
Settings	molar volume [m3/mol]
m1 = 0.0685	0.0002816
m1 = 0.0996	0.0002815
m1 = 0.1061	0.0002817
m1 = 0.1259	0.0002815
m1 = 0.1271	0.0002817
m1 = 0.1522	0.0002818
m1 = 0.1885	0.0002815
m1 = 0.2032	0.0002815

CCCCCC(F)(F)C(F)(F)C(F)(F)C(F)(F)F [1,1,1,2,2,3,3,4,4-nonafluorononane] + CCCCCCCC
Settings	molar volume [m3/mol]
m1 = 0.0527	0.0002338
m1 = 0.0601	0.0002337
m1 = 0.0947	0.0002337
m1 = 0.1337	0.0002337
m1 = 0.1437	0.0002336
m1 = 0.1755	0.0002334
m1 = 0.1914	0.0002334
m1 = 0.2141	0.0002334

FC(F)(F)C(F)(F)C(F)(F)C(F)(F)C(F)(F)C(F)(F)C(F)(F)C(F)(F)C(F)(F)F [eicosafluorononane] + CCCCCCCC
Settings	molar volume [m3/mol]
m1 = 0.0532	0.0003069
m1 = 0.0565	0.000307
m1 = 0.0714	0.0003073
m1 = 0.0832	0.0003067
m1 = 0.1105	0.000307
m1 = 0.1219	0.0003062
m1 = 0.1488	0.0003058
m1 = 0.1513	0.0003065

FC(F)(F)C(F)(F)C(F)(F)C(F)(F)C(F)(F)C(F)(F)C(F)(F)C(F)(F)F [octadecafluorooctane] + CCCCCCCC
Settings	molar volume [m3/mol]
m1 = 0.0362	0.0002822
m1 = 0.0617	0.0002816
m1 = 0.0923	0.0002798
m1 = 0.1157	0.0002803
m1 = 0.1445	0.0002792
m1 = 0.1585	0.0002786
m1 = 0.1808	0.0002784
m1 = 0.2115	0.0002788

FC(F)(F)C(F)(F)C(F)(F)C(F)(F)C(F)(F)C(F)(F)F [perfluorohexane] + CCCCCCCC
Settings	molar volume [m3/mol]
m1 = 0.088	0.0002294
m1 = 0.1035	0.0002312
m1 = 0.131	0.0002293
m1 = 0.1624	0.0002278
m1 = 0.1833	0.0002292
m1 = 0.2156	0.0002299
m1 = 0.2594	0.0002276
m1 = 0.268	0.0002308
m1 = 0.304	0.0002288
m1 = 0.3424	0.0002285
m1 = 0.3621	0.00023
m1 = 0.4051	0.0002288
